ChEMBL document CHEMBL1201862, “PubChem BioAssay data set” (2004)
Calls of active or inactive are those of the source.

Legend:
[1] = molecular target: T1, Replicative DNA helicase DnaB (Mycobacterium tuberculosis, UniProt P9WMR3); test: DnaB intein splicing inhibitors, dose response, biochemical, cell-free fluorescence (AID 449749); format: functional
T1 sequence (P9WMR3 whole entry): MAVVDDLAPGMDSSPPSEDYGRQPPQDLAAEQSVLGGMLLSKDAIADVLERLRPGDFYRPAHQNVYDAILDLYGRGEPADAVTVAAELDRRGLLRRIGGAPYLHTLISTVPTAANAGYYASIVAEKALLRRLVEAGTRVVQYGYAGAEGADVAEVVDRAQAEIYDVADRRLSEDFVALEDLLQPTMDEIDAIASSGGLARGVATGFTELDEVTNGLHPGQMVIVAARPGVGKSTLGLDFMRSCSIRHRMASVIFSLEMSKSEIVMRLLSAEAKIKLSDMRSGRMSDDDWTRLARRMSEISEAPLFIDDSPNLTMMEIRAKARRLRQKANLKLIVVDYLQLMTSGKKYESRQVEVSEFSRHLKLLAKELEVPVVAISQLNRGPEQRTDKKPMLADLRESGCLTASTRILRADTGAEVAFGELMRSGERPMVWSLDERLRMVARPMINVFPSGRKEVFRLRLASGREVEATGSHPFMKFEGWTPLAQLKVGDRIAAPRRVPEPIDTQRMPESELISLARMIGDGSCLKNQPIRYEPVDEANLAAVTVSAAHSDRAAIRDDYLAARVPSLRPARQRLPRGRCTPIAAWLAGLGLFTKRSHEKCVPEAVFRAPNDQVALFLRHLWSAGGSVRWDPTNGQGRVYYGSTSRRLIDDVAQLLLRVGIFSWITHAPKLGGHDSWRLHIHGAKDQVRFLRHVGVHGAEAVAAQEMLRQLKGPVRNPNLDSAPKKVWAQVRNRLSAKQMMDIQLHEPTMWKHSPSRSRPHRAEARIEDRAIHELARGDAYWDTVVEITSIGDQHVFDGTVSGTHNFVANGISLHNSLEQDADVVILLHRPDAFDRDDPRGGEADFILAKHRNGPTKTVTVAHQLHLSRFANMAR

Protein RecA = molecular target: T2, Protein RecA (Mycobacterium tuberculosis, UniProt P9WHJ3); test: Fluorescence Cell-Free Homogeneous Dose Retest to Identify Inhibitors of RecA-Intein Splicing Activity. [Related pubchem assays (depositor defined):AID2097, AID2223, AID489010, AID492950]; format: functional
T2 sequence (P9WHJ3 whole entry): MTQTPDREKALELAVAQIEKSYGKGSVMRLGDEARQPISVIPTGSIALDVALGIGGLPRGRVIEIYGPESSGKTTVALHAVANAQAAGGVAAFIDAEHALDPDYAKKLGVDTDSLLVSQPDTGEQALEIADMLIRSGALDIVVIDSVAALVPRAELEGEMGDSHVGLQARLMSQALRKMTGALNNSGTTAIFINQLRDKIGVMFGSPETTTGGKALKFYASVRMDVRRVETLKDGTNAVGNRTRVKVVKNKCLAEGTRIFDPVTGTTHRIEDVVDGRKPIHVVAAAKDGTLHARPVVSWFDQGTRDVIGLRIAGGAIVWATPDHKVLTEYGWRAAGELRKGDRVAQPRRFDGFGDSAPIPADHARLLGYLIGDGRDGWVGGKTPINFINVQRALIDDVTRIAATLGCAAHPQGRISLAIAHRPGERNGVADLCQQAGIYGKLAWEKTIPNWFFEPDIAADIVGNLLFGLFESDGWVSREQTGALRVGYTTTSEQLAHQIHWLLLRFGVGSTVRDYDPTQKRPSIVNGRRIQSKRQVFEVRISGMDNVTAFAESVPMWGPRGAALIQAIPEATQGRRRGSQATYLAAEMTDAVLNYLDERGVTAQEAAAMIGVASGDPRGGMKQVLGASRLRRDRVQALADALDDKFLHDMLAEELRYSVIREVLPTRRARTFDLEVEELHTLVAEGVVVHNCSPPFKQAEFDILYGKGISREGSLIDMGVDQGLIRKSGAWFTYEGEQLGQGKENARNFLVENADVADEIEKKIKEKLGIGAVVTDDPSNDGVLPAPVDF

Caspase-3 = molecular target: T3, Caspase-3 (Homo sapiens, UniProt P42574); format: functional;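 further: Dose-response selectivity test against caspase-3 for candidate inhibitors of sentrin-specific proteases (SENPs)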
T3 sequence (P42574 whole entry): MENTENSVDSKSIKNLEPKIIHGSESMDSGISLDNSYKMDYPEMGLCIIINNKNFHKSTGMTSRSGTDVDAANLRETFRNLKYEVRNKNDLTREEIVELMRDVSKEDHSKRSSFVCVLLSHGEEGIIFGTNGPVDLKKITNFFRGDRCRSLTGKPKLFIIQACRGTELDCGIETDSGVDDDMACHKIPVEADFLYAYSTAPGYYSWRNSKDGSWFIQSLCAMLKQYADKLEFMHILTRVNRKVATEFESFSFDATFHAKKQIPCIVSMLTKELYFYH

[2] = molecular target: T4, Sentrin-specific protease 8 (Homo sapiens, UniProt Q96LD8); format: functional;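 further: luminescence read-out of SENP8 inhibition, dose-response confirmation following an ultra-high-throughput screen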
T4 sequence (Q96LD8 whole entry): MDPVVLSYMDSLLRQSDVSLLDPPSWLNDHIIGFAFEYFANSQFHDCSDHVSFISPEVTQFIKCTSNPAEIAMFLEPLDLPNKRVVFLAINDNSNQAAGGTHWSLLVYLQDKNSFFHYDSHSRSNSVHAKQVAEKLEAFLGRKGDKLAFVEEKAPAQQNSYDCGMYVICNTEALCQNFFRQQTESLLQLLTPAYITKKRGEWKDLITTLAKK

[3] = Counterscreen for AddAB inhibitors: absorbance-based bacterial cell-based high throughput dose response assay for inhibitors of bacterial viability. [Related pubchem assays (depositor defined):AID435030, AID449728, AID449731, AID488942, AID488955, AID488956]; format: functional
[4] = tested on: Streptococcus sp. 'group A'; test: Streptococcus pyogenes SK(-)GAS viability under kanamycin – luminescence, BacTiterGlo, confirmation, counter-screen for streptokinase expression inhibitor project, dose response (AID 1900); format: functional, organism-based
Streptokinase A = molecular target: T5, Streptokinase A (Streptococcus pyogenes serotype M1, UniProt P10520); test: viability-normalized secreted streptokinase activity reduction – plasminogen activation absorbance, OD405, dose response (AID 1914); format: functional, Streptococcus pyogenes M1 GAS;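 further: secreted streptokinase activity via plasminogen activation per viability signal from cell pellet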
T5 sequence (P10520 whole entry): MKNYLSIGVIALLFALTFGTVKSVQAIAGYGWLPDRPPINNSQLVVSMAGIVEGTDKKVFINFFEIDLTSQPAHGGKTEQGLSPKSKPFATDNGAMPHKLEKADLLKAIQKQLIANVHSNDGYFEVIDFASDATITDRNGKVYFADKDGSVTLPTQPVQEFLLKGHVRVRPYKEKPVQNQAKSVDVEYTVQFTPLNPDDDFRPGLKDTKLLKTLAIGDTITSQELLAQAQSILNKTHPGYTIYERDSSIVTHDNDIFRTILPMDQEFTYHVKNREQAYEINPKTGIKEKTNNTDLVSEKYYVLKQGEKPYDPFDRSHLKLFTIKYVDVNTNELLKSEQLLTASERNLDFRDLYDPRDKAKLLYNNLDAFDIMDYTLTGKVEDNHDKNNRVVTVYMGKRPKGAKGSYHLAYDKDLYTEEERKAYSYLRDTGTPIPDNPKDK

Structure (SMILES)	AC50 [1]	EC50 (Protein RecA)	IC50 (Caspase-3)	IC50 [2]	IC50 [3]	EC50 [4]	EC50 (Streptokinase A)
Cn1nc(-c2ccc(Cl)cc2)nc2c(=O)n(C)c(=O)nc1-2	0.0409 µM (active)	0.0305 µM (active)					
SC1=Nc2ccccc2C1	1.77 µM (active)	1.66 µM (active)					
NS(=O)(=O)c1ccc(NC(=O)COC(=O)c2ccc([N+](=O)[O-])s2)cc1			10.2 µM (active)	4.33 µM (active)			
CCCCNc1cc(NC(C)=O)cc2cc(OC)c(OC)cc12			20.7 µM (active)	18.3 µM (active)			
COc1ccc(C(NC(=O)C(C)C)c2ccc3cccnc3c2O)cc1 (centres undefined)					> 119 µM (inactive)	7.99 µM (active)	> 150 µM (not active)
O=C(Cc1ccc([N+](=O)[O-])cc1)N/N=C/c1ccc([N+](=O)[O-])o1					16.6 µM (inactive)	11.9 µM (active)	37 µM (active)
